{"source": "patent US8962024B2", "about": "“Method for treating primary insomnia” (Neurim Pharmaceuticals (1991) Ltd, priority 2001, dated 2015)", "key": {"[1]": {"system": "healthy elderly volunteers", "assay": "Battery of psychomotor tasks after an evening tablet (Example 4)", "type": "in vivo, human", "description": "(§1) The effect of melatonin (2 mg prolonged-release formulation), N, N, 6-trimethyl-2-p-tolylimidazo[1,2-a]pyridine-3-acetamide (zolpidem; 10 mg) and placebo on psychomotor skills and driving performance were assessed in 16 healthy elderly volunteers age 59.4 years (SD 3.2). In a randomized, double-blind, crossover study the subjects were given a tablet of placebo in the evening to establish baseline and then a tablet of melatonin, zolpidem or placebo in a random order in the evening with one week with no treatment in between treatments. A battery of psychomotor tasks, driving performance and wake EEG during a driving test were studied in the patients at pre-selected intervals after the administration of the tablet."}, "[2]": {"system": "healthy elderly volunteers", "assay": "Driving performance test after an evening tablet (Example 4)", "type": "in vivo, human", "conditions": "2 hours post-dosing; zolpidem 10 mg, melatonin prolonged release 2 mg", "description": "as §1"}, "[3]": {"system": "elderly primary insomnia patients", "assay": "Full-night polysomnographic recordings after 3 weeks of treatment (Example 1)", "type": "in vivo, human", "description": "(§2) The effect of a prolonged-release formulation of melatonin on sleep quantity and quality in 40 elderly primary insomnia patients (aged 76 [SD 8] years) were studied in a randomized, double-blind, two parallel group study. The subjects were treated for 3 weeks every evening with melatonin (2 mg prolonged-release formulation) or placebo. Full-night polysomnographic recordings were performed on the last two days of treatment to measure quantitative aspects of sleep. On each morning following sleep recording in the laboratory, a battery of psychomotor tests was taken by all patients to assess daytime vigilance. In addition, patients recorded every day in diaries their perceived quality of sleep the previous night."}, "[4]": {"system": "elderly primary insomnia patients", "assay": "Battery of psychomotor tests to assess daytime vigilance (Example 1)", "type": "in vivo, human", "conditions": "2 mg prolonged-release formulation", "description": "as §2"}, "[5]": {"system": "elderly primary insomnia patients", "assay": "Patient diaries of perceived quality of sleep (Example 1)", "type": "in vivo, human", "conditions": "2 mg prolonged-release formulation, 3 weeks", "description": "as §2"}, "[6]": {"system": "elderly primary insomnia patients", "assay": "Subjectively assessed quality of sleep and daytime alertness on 100 mm line (Example 2)", "type": "in vivo, human", "conditions": "2 mg per night prolonged-release, 3 weeks", "description": "The effect of a prolonged-release formulation of melatonin on subjectively assessed sleep quality and daytime vigilance in 170 elderly primary insomnia patients (aged 68.5 [SD 8.3] years) were studied in a randomized, double-blind, two parallel group study. The subjects were treated for 2 weeks with placebo to establish baseline characteristics and then for 3 weeks with melatonin (2 mg per night of prolonged-release formulation) or placebo. On the last three days of the baseline and treatment periods patients were asked to assess the quality of their sleep the previous night and their feeling in the morning. The quality of sleep question was “How would you compare the quality of sleep using the medication with non-medicated (your usual) sleep?” The patients marked the level of their perceived quality of sleep on a 100 mm, non-hatched horizontal line with two endpoints. The left endpoint was labeled “more restless than usual” and the right endpoint was labeled “more restful than usual”. The waking state question was “How do you feel now?” The patients marked the level of their perceived waking state on a 100 mm, non-hatched horizontal line with two endpoints. The left endpoint was labeled “tired” and the right endpoint was labeled “alert”. The distance of the patient mark from the right endpoint in mm was measured (a reduction in value therefore indicates a better sleep or less tired state). The mean distance across the three nights was calculated."}, "[7]": {"system": "primary insomnia patients (aged 20-80 years)", "assay": "Subjectively assessed quality of sleep and daytime alertness on 100 mm line (Example 3)", "type": "in vivo, human", "conditions": "for Change in perceived daytime alertness, mean in mm / Change in perceived quality of sleep, mean in mm: 2 mg per night prolonged-release, 3 weeks", "description": "The effect of a prolonged-release formulation of melatonin on subjectively assessed sleep quality and daytime vigilance in 170 elderly primary insomnia patients (aged 68.5 [SD 8.3] years) were studied in a randomized, double-blind, two parallel group study. The subjects were treated for 2 weeks with placebo to establish baseline characteristics and then for 3 weeks with melatonin (2 mg per night of prolonged-release formulation) or placebo. On the last three days of the baseline and treatment periods patients were asked to assess the quality of their sleep the previous night and their feeling in the morning. The quality of sleep question was “How would you compare the quality of sleep using the medication with non-medicated (your usual) sleep?” The patients marked the level of their perceived quality of sleep on a 100 mm, non-hatched horizontal line with two endpoints. The left endpoint was labeled “more restless than usual” and the right endpoint was labeled “more restful than usual”. The waking state question was “How do you feel now?” The patients marked the level of their perceived waking state on a 100 mm, non-hatched horizontal line with two endpoints. The left endpoint was labeled “tired” and the right endpoint was labeled “alert”. The distance of the patient mark from the right endpoint in mm was measured (a reduction in value therefore indicates a better sleep or less tired state). The mean distance across the three nights was calculated. The effect of melatonin on subjectively assessed sleep quality and daytime vigilance in 131 primary insomnia patients (aged 20-80 years) were studied in a randomised, double-blind, parallel group study. The subjects were treated for 1 week with placebo to establish baseline characteristics and then for 3 weeks with melatonin (2 mg per night of prolonged-release formulation) or placebo. On the last three days of the baseline and treatment periods patients were asked to assess the quality of their sleep the previous night and their feeling at daytime as described in Example 2."}, "[8]": {"system": "polysomnographically pre-screened insomniacs", "conditions": "1 and 5 mg at 10:45 pm for one night each, cited from earlier work"}, "[9]": {"system": "patients with psychophysiological insomnia", "conditions": "5 mg at 8:00 pm for 1 week; cited from earlier work"}, "[10]": {"system": "elderly patients with sleep maintenance insomnia", "conditions": "immediate and controlled release formulations, 0.5 and 5 mg, cited from earlier work"}, "[11]": {"system": "insomniac patients", "conditions": "75 mg per os at 10 PM daily for 14 consecutive days, cited from earlier work"}, "[12]": {"conditions": "zolpidem 10 mg single evening tablet"}, "[13]": {"conditions": "2 mg prolonged-release formulation, 3 weeks, versus placebo"}}}
{"compound": "Cc1ccc(-c2nc3ccc(C)cn3c2CC(=O)N(C)C)cc1", "note": "[zolpidem, N, N, 6-trimethyl-2-p-tolylimidazo[1,2-a]pyridine-3-acetamide]", "values": [{"measurement": "Memory efficiency, both recalls (immediate and delayed), compared to placebo and melatonin 2 mg", "setting": "[1]; zolpidem 10 mg", "result": "decreased"}, {"measurement": "impairments compared to placebo across measures of attention, episodic secondary memory and motor coordination", "setting": "[1]; [12]", "result": "several acute impairments"}, {"measurement": "time post-dosing by which acute impairments were resolved", "setting": "[1]; [12]", "result": "≤ 12.5", "unit": "h"}, {"measurement": "number of collisions", "setting": "[2]", "result": "increased number of collisions"}]}
{"compound": "COc1ccc2[nH]cc(CCNC(C)=O)c2c1", "note": "[melatonin]", "values": [{"measurement": "sleep onset latency (SL) time shortened on average, compared to placebo", "setting": "[3]; 2 mg prolonged-release formulation every evening for 3 weeks, P=0.011", "result": 9, "unit": "min"}, {"measurement": "duration of wake prior sleep onset (DWAPSO) compared to placebo", "setting": "[3]; 2 mg prolonged-release formulation, 3 weeks, p=0.011", "result": "improved significantly"}, {"measurement": "% of time spent asleep prior to sleep onset (DWAPSOP) compared to placebo", "setting": "[3]; 2 mg prolonged-release formulation, 3 weeks, p=0.02", "result": "improved significantly"}, {"measurement": "sleep architecture or all night EEG spectral analysis", "setting": "[3]; [13]", "result": "no differences between groups"}, {"measurement": "sleep maintenance variables (number of awakenings, DWASO, sleep efficiency, total sleep time)", "setting": "[3]; [13]", "result": "no differences between melatonin and placebo"}, {"measurement": "Critical Flicker fusion test and total reaction time, melatonin vs. placebo", "setting": "[4]; at the end of treatment", "result": "significant treatment effects"}, {"measurement": "psychomotor skills compared to placebo-treated group", "setting": "[4]; morning after sleep recording", "result": "significantly higher"}, {"measurement": "ease of getting to sleep as evaluated in diaries, compared to placebo", "setting": "[5]", "result": "did not evaluate the ease of getting to sleep as being better"}, {"measurement": "quality of sleep as judged by patients in diaries", "setting": "[5]", "result": "improved"}, {"measurement": "quality of sleep and daytime alertness compared to placebo", "setting": "[6]", "result": "significantly improved"}, {"measurement": "Change in perceived quality of sleep, change in mm mean", "setting": "[6]; 170 elderly patients, reduction = better sleep", "result": "−24.3", "unit": "mm"}, {"measurement": "Change in perceived daytime alertness, change in mm mean", "setting": "[6]; 170 elderly patients, reduction = less tired", "result": "−16.8", "unit": "mm"}, {"measurement": "quality of sleep and daytime alertness", "setting": "[7]; 55 years and older patients", "result": "improvement"}, {"measurement": "Change in perceived daytime alertness, mean in mm", "setting": "[7]; Patients aged 55 and over", "result": "−16.3", "unit": "mm"}, {"measurement": "Change in perceived quality of sleep, mean in mm", "setting": "[7]; Patients aged 55 and over", "result": "−13.1", "unit": "mm"}, {"measurement": "Change in perceived daytime alertness, mean in mm", "setting": "[7]; Patients aged less than 55", "result": "−4.0", "unit": "mm"}, {"measurement": "Change in perceived quality of sleep, mean in mm", "setting": "[7]; Patients aged less than 55", "result": "−1.6", "unit": "mm"}, {"measurement": "quality of sleep and daytime alertness compared to placebo", "setting": "[7]; patients <55 years of age", "result": "significant worsening"}, {"measurement": "sleep latency, sleep efficiency, total sleep time, wake after sleep onset", "setting": "[8]; 10 insomniacs", "result": "did not alter"}, {"measurement": "patient-reported sleep quality", "setting": "[8]", "result": "improved"}, {"measurement": "rested in the morning, patient-reported", "setting": "[8]", "result": "not more rested"}, {"measurement": "total sleep time as believed by the patients", "setting": "[8]", "result": "shorter"}, {"measurement": "patients unable to distinguish the period of active melatonin treatment", "setting": "[9]", "result": "8 patients out of 15"}, {"measurement": "sleep quantity or quality", "setting": "[9]", "result": "no reported change"}, {"measurement": "sleep latency", "setting": "[10]; 30 min before sleep", "result": "reduced"}, {"measurement": "reported sleep quality or daytime measure of mood and alertness", "setting": "[10]", "result": "No melatonin-induced changes"}, {"measurement": "wake time after sleep onset or total sleep time", "setting": "[10]", "result": "did not alter"}, {"measurement": "subjective assessment of total sleep time and daytime alertness", "setting": "[11]; 13 patients", "result": "significant increase"}, {"measurement": "patients reporting no significant effect on subjective feelings of well-being", "setting": "[11]", "result": "7/13"}]}
